{
  "source": "patent US5510340A",
  "about": "“Antihypercholesterolemic compounds and related pharmaceutical compositions and methods of use” (SRI International, priority 1992, dated 1996)",
  "key": {"[1]": {"system": "Cholesterol Levels in Plasma of Rats", "test": "Assay for Lowering Cholesterol Levels in Rats Fed Drug-Containing Food Ad Libitum", "type": "in vivo, Male Sprague-Dawley rats", "conditions": "rat plasma, mean ± S.E.", "description": "(d.) Assay for Lowering Cholesterol Levels in Rats Fed Drug-Containing Food Ad Libitum:\nMale Sprague-Dawley rats weighing 150 to 200 g were used for this experiment. The animals were divided into groups of six rats each. All groups were kept on a cholesterol-free diet throughout the entire experiment. This diet was prepared by adding the test compound in small portions (usually 100 mg) to 100 g of choleserol-free diet in a 1-liter glass separatory funnel with a stopper. The diet was thoroughly mixed after each addition of the test compound. The resulting diet was kept in a refrigerator at all times. Before feeding, the diet was allowed to warm to room temperature. The animals were housed individually in metabolic cages. All test groups were allowed free access to the cholesterol-free diet containing the proper doses of the test compound. A pair-fed group was assigned to each test group and allowed free access to the cholesterol-free diet only in the amount consumed by its corresponding counterpart on the previous day. The control group was allowed free access to the cholesterol-free diet with no restriction. The food consumption and body weights of all groups were recorded daily. Blood samples were taken from all groups on day 0 and every third or fourth day throughout the entire experiment. Plasma was obtained by drawing blood into EDTA-treated centrifuge tubes and centrifuging at 3000 rpm for 10 min. The total cholesterol level and HDL in each plasma sample were determined using a Gemini autoanalyzer."}, "Cholesterol Biosynthesis": {"system": "Cholesterol Biosynthesis", "test": "In Vivo Cholesterol Biosynthesis Inhibition in Rats with Oral Administration of Test Compounds (compound 13, gavage)", "design": "species or system Male Sprague-Dawley rats", "conditions": "rat plasma, 7 days; for 14C-Acetate Incorporation / Cholesterol Levels, HDL / 14C-Acetate Incorporation, Inhibition: gavage; for 14C-Acetate Incorporation: control 1200 ± 95; for Cholesterol Levels, HDL / Cholesterol Levels, Total: mean ± S.E.; for Cholesterol Levels, HDL: control 32 ± 2.1; for 14C-Acetate Incorporation, Inhibition: vs control; for Cholesterol Levels, Total: three daily doses via gavage, control 77.6 ± 2.3", "description": "(b.) In Vivo Cholesterol Biosynthesis Inhibition in Rats with Oral Administration of Test Compounds:\nMale Sprague-Dawley rats weighing 120 to 150 g were used. The animals were placed on a cholesterol-free diet immediately upon arrival and housed in a room with a reverse light cycle. One week after they had adapted to the light cycle, the experiment was begun by gavaging the animals three times daily with various amounts of test compound 13 suspended in 1.0 mL of saline. The control group received 1.0 mL of saline alone. On the seventh day of the experiment, sodium 1-^14 C! acetate (20 μCi/rat) was injected intraperitoneally 30 min after the oral administration (gavage) of test compounds and 2 h before the mid-dark point in the diurnal cycle; 4 h after the ^14 C-acetate injection, the animals were killed and blood samples were collected after decapitation. Plasma was obtained by centrifuging blood in an EDTA-treated centrifuge tube at 3000 rpm for 10 min. Cholesterol synthesis was measured by determining the level of ^14 C-labeled nonsaponifiable lipid present in 1.0 mL of plasma; 1.0 mL of plasma was first mixed with 1.0 mL of saline, followed by 5.0 mL of 10% KOH in absolute ethanol. Samples were saponified at 75° C. for 1 h. After cooling, 44,000 dpm, 0.5 nmol of 1,2-^3 H! cholesterol was added to each sample as an internal standard for calculating recovery through the extraction procedure. Samples were extracted once with 5 mL of petroleum ether, and the organic phase was backwashed with 5 mL of saline. The extracts were dried on a nitrogen evaporator, and the residue was reconstituted into 0.5 mL of CHCl3 -MeOH (2:1). The 0.5-mL reconstituted samples were transferred into counting vials containing 2 mL of ethanol, and both ^3 H and ^14 C were counted in 10 mL of scintillation fluid. The ^3 H-cholesterol internal standard recovery value from each sample was used to correct each sample to 100% recovery of ^14 C-cholesterol. The total cholesterol level and HDL in each plasma sample was also measured. The comparison between test groups and the control group was evaluated for both cholesterol levels and ^14 C-acetate incorporation."}, "[2]": {"conditions": "Day 0, cholesterol-free diet containing 0.2% inhibitor, control 29 ± 0.9"}, "[3]": {"conditions": "Day 0, cholesterol-free diet containing 0.2% inhibitor, control 70 ± 1"}, "[4]": {"conditions": "Day 4, cholesterol-free diet containing 0.2% inhibitor, control 28 ± 2"}, "[5]": {"conditions": "Day 4, cholesterol-free diet containing 0.2% inhibitor, control 77 ± 2"}, "[6]": {"conditions": "Day 7, cholesterol-free diet containing 0.2% inhibitor, control 26 ± 2"}, "[7]": {"conditions": "Day 7, diet containing 0.2% inhibitor, control 76 ± 4, ^b significantly lower than Day 0 (P < 0.001), pair-fed (P < 0.005) and control (P < 0.001), ^c significantly lower than pair-fed (P < 0.02)"}, "[8]": {"conditions": "Day 10, cholesterol-free diet containing 0.2% inhibitor, control 32 ± 1.5"}, "[9]": {"conditions": "Day 10, cholesterol-free diet containing 0.2% inhibitor, control 81 ± 3"}},
  "data": [
    {"smiles": "CC(C)CCC[C@@H](C)[C@H]1CC(=O)C2=C3CC[C@H]4C[C@@H](O)CC[C@]4(C)[C@H]3CC[C@@]21C", "note": "[Compound 27, 3β-Hydroxy-5α-cholest-8(14)-ene-15-one, reference compound]", "values": [
      {"measurement": "Cholesterol levels, LDL", "setting": "[1]; [2]", "value": "34 ± 2", "unit": "mg/100 mL"},
      {"measurement": "Cholesterol Levels, Total", "setting": "[1]; [3]", "value": "74 ± 3", "unit": "mg/100 mL"},
      {"measurement": "Cholesterol levels, LDL", "setting": "[1]; [4]", "value": "31 ± 2", "unit": "mg/100 mL"},
      {"measurement": "Cholesterol Levels, Total", "setting": "[1]; [5]", "value": "69 ± 2", "unit": "mg/100 mL"},
      {"measurement": "Cholesterol levels, LDL", "setting": "[1]; [6]", "value": "23 ± 2", "unit": "mg/100 mL"},
      {"measurement": "Cholesterol Levels, Total", "setting": "[1]; [7]", "value": "48 ± 4", "unit": "mg/100 mL"},
      {"measurement": "Cholesterol levels, LDL", "setting": "[1]; [8]", "value": "41 ± 1.5", "unit": "mg/100 mL"},
      {"measurement": "Cholesterol Levels, Total", "setting": "[1]; [9]", "value": "66 ± 2", "unit": "mg/100 mL"}
    ]},
    {"smiles": "CC(C)CCC[C@@H](C)[C@H]1Cc2nnc3c4c2[C@]1(C)CC[C@@H]4[C@@]1(C)CC[C@H](O)C[C@@H]1C3", "note": "[Compound 13, pyridazino 3',4',5',6':7,8,14,15!5α-cholestan-3β-ol]", "values": [
      {"measurement": "Cholesterol levels, LDL", "setting": "[1]; [2]", "value": "34 ± 1.8", "unit": "mg/100 mL"},
      {"measurement": "Cholesterol Levels, Total", "setting": "[1]; [3]", "value": "74 ± 1", "unit": "mg/100 mL"},
      {"measurement": "Cholesterol levels, LDL", "setting": "[1]; [4]", "value": "28 ± 2", "unit": "mg/100 mL"},
      {"measurement": "Cholesterol Levels, Total", "setting": "[1]; [5]", "value": "62 ± 2", "unit": "mg/100 mL"},
      {"measurement": "Cholesterol levels, LDL", "setting": "[1]; [6]", "value": "17 ± 3", "unit": "mg/100 mL"},
      {"measurement": "Cholesterol Levels, Total", "setting": "[1]; [7]", "value": "46 ± 3", "unit": "mg/100 mL"},
      {"measurement": "Cholesterol levels, LDL", "setting": "[1]; [8]", "value": "29 ± 2", "unit": "mg/100 mL"},
      {"measurement": "Cholesterol Levels, Total", "setting": "[1]; [9]", "value": "47 ± 5", "unit": "mg/100 mL"},
      {"measurement": "14C-Acetate Incorporation", "setting": "Cholesterol Biosynthesis; 0.16 mg/rat/day", "value": "696 ± 107", "unit": "cpm/ml"},
      {"measurement": "Cholesterol Levels, HDL", "setting": "Cholesterol Biosynthesis; 0.16 mg/rat/day", "value": "44.0 ± 10.6", "unit": "Mg/100 ml"},
      {"measurement": "14C-Acetate Incorporation, Inhibition", "setting": "Cholesterol Biosynthesis; 0.16 mg/rat/day", "value": 42, "unit": "%"},
      {"measurement": "Cholesterol Levels, Total", "setting": "Cholesterol Biosynthesis; 0.16 mg/rat/day", "value": "66.8 ± 3.4", "unit": "Mg/100 ml"},
      {"measurement": "14C-Acetate Incorporation", "setting": "Cholesterol Biosynthesis; 0.33 mg/rat/day", "value": "510 ± 122", "unit": "cpm/ml"},
      {"measurement": "Cholesterol Levels, HDL", "setting": "Cholesterol Biosynthesis; 0.33 mg/rat/day", "value": "27.6 ± 3.5", "unit": "Mg/100 ml"},
      {"measurement": "14C-Acetate Incorporation, Inhibition", "setting": "Cholesterol Biosynthesis; 0.33 mg/rat/day", "value": 58, "unit": "%"},
      {"measurement": "Cholesterol Levels, Total", "setting": "Cholesterol Biosynthesis; 0.33 mg/rat/day", "value": "62.6 ± 2.4", "unit": "Mg/100 ml"},
      {"measurement": "14C-Acetate Incorporation", "setting": "Cholesterol Biosynthesis; 1.0 mg/rat/day", "value": "385 ± 47", "unit": "cpm/ml"},
      {"measurement": "Cholesterol Levels, HDL", "setting": "Cholesterol Biosynthesis; 1.0 mg/rat/day", "value": "28.6 ± 1.9", "unit": "Mg/100 ml"},
      {"measurement": "14C-Acetate Incorporation, Inhibition", "setting": "Cholesterol Biosynthesis; 1.0 mg/rat/day", "value": 68, "unit": "%"},
      {"measurement": "Cholesterol Levels, Total", "setting": "Cholesterol Biosynthesis; 1.0 mg/rat/day", "value": "61.4 ± 3.0", "unit": "Mg/100 ml"},
      {"measurement": "14C-Acetate Incorporation", "setting": "Cholesterol Biosynthesis; 3.0 mg/rat/day", "value": "383 ± 38", "unit": "cpm/ml"},
      {"measurement": "Cholesterol Levels, HDL", "setting": "Cholesterol Biosynthesis; 3.0 mg/rat/day", "value": "28.8 ± 4.3", "unit": "Mg/100 ml"},
      {"measurement": "14C-Acetate Incorporation, Inhibition", "setting": "Cholesterol Biosynthesis; 3.0 mg/rat/day", "value": 69, "unit": "%"},
      {"measurement": "Cholesterol Levels, Total", "setting": "Cholesterol Biosynthesis; 3.0 mg/rat/day", "value": "60.8 ± 0.9", "unit": "Mg/100 ml"},
      {"measurement": "14C-Acetate Incorporation", "setting": "Cholesterol Biosynthesis; 7.5 mg/rat/day", "value": "340 ± 50", "unit": "cpm/ml"},
      {"measurement": "Cholesterol Levels, HDL", "setting": "Cholesterol Biosynthesis; 7.5 mg/rat/day", "value": "14.3 ± 0.33", "unit": "Mg/100 ml"},
      {"measurement": "14C-Acetate Incorporation, Inhibition", "setting": "Cholesterol Biosynthesis; 7.5 mg/rat/day", "value": 72, "unit": "%"},
      {"measurement": "Cholesterol Levels, Total", "setting": "Cholesterol Biosynthesis; 7.5 mg/rat/day", "value": "44.0 ± 1.0", "unit": "Mg/100 ml"}
    ]}
  ]
}
